Experimental data reported in ChEMBL document CHEMBL4152237, “Identification of novel β-lactams and pyrrolidinone derivatives as selective Histamine-3 receptor (H3R) modulators as possible anti-obesity agents” (Eur J Med Chem, 2018).
Active and inactive are the calls of the source. How the calls were made is not given here.

Experiments:
Histamine H3 receptor = Histamine H3 receptor (Homo sapiens, UniProt Q9Y5N1); test: Agonist activity at human H3R expressed in HEK293 cells harboring glosensor-22F cAMP plasmid DNA assessed as inhibition of forskolin-stimulated cAMP accumulation at 10 uM preincubated with cells followed by forskolin addition measured after 10 mins by luminescence assay relative to control; format: functional, cell-based
Sequence of Histamine H3 receptor (Q9Y5N1 whole entry): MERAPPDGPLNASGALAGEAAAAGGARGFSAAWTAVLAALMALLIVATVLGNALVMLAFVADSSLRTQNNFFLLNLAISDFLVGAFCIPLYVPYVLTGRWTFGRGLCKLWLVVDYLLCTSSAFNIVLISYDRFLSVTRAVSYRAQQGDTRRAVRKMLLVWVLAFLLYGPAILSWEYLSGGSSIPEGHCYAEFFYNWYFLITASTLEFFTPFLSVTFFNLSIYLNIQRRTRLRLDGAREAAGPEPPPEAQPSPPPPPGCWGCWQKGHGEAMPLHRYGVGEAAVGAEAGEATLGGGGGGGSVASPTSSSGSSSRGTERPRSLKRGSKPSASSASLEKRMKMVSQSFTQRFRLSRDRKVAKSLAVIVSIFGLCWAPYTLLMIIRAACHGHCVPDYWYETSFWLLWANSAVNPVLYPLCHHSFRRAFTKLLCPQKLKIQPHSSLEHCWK

[1] = molecular target: T1, 5-hydroxytryptamine receptor 2C (Homo sapiens) (UniProt P28335); test: Agonist activity at human 5-HT2C expressed in HEK293 cells harboring luc2P/NFAT-RE plasmid at 10 uM after 6 to 8 hrs by luciferase reporter gene assay; format: functional, cell-based
T1 sequence (whole entry): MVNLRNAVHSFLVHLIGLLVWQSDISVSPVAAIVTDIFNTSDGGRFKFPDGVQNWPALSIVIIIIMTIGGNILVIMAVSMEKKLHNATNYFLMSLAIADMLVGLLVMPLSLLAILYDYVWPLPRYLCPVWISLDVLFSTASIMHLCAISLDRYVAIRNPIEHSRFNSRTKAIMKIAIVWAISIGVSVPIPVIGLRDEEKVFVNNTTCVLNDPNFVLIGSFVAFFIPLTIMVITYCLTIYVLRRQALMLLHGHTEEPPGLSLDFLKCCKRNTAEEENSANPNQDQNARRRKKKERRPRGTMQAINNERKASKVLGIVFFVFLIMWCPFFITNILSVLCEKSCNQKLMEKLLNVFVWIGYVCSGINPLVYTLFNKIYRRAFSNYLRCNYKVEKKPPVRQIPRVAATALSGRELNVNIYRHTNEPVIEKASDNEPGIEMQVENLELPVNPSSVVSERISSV

inhibition (Histamine H3 receptor)	Activity [1]	Compound
inactive	inactive	COc1ccc(N2C(=O)/C(=C\c3ccccc3)C2(C(=O)NC2CCCCC2)c2cc(F)cc(F)c2)cc1OC (stereo unspecified)
inactive	inactive	COc1ccc(C2=C(c3ccccc3)C3(C=CC(=O)C=C3)N(C(C(=O)NC3CCCCC3)c3ccc(OC)c(C)c3)C2=O)cc1 (stereo unspecified)
inactive	inactive	COc1ccc(C(C(=O)NC2CCCCC2)N2C(=O)C(I)=C(c3ccccc3)C23C=CC(=O)C=C3)cc1 (stereo unspecified)
inactive	inactive	COC1=CC2(C=C(OC)C1=O)C(c1ccccc1)=C(I)C(=O)N2C(C(=O)NC1CCCCC1)c1ccc(OC)c(OC)c1OC (stereo unspecified)
	inactive	N#Cc1ccc([C@@H]2C(=O)N[C@@H]3CC(=O)C=C[C@@]34C(c3ccccc3)=CC(=O)N24)cc1
inactive	inactive	COc1ccc(NC2(c3ccccc3)C(=O)N(C3CCCCC3)C(=O)/C2=C/c2ccccc2)cc1OC (stereo unspecified)
inactive	inactive	Cc1cc(C)cc([C@@H]2C(=O)N[C@@H]3CC(=O)C=C[C@@]34C(c3ccccc3)=CC(=O)N24)c1
inactive	inactive	O=C1C=C[C@]23C(c4ccccc4)=CC(=O)N2[C@H](c2ccc(Br)cc2)C(=O)N[C@@H]3C1
inactive	inactive	COc1ccc(NC2(c3ccc(Cl)c(F)c3)C(=O)N(C3CCCCC3)C(=O)/C2=C/c2ccccc2)cc1OC (stereo unspecified)
inactive	inactive	COc1ccc(NC2(c3ccc(Cl)c(F)c3)C(=O)N(C(C)(C)C)C(=O)/C2=C/c2ccccc2)cc1 (stereo unspecified)
inactive	inactive	CC(C)(C)NC(=O)C(c1ccccc1Br)N1C(=O)C(I)=C(c2ccccc2)C12C=CC(=O)C=C2 (stereo unspecified)
inactive	inactive	COc1cc(NC2(c3cc(F)cc(F)c3)C(=O)N(C3CCCCC3)C(=O)/C2=C/c2ccccc2)cc(OC)c1OC (stereo unspecified)
inactive	inactive	COc1ccc(N2C(=O)/C(=C\c3ccccc3)C2(C(=O)NC(C)(C)C)c2ccc(C(F)(F)F)cc2)cc1 (stereo unspecified)
	inactive	COc1ccc(N2C(=O)/C(=C\c3ccccc3)C2(C(=O)NC(C)(C)C)c2cc(F)cc(F)c2)cc1 (stereo unspecified)
inactive	inactive	COc1ccc([C@@H]2C(=O)N[C@@H]3CC(=O)C=C[C@@]34C(c3ccccc3)=CC(=O)N24)cc1
inactive	inactive	COc1ccc(NC2(c3ccc(Br)cc3)C(=O)N(C3CCCCC3)C(=O)/C2=C/c2ccccc2)cc1OC (stereo unspecified)
inactive	inactive	COc1ccc(NC2(c3ccc(F)cc3)C(=O)N(C3CCCCC3)C(=O)/C2=C/c2ccccc2)cc1OC (stereo unspecified)
inactive	inactive	COc1cc(OC)c(C(C(=O)NC2CCCCC2)N2C(=O)C(c3ccc(CO)cc3)=C(c3ccccc3)C23C=CC(=O)C=C3)cc1OC (stereo unspecified)
inactive	inactive	COc1ccc(N2C(=O)C(=Cc3ccccc3)C2(C(=O)NC(C)(C)C)c2ccccc2)cc1 (stereo unspecified)
inactive	inactive	COc1ccc(C(C(=O)NC2CCCCC2)N2C(=O)C(I)=C(c3ccccc3)C23C=CC(=O)C=C3)cc1C (stereo unspecified)
inactive	inactive	O=C1C=C[C@]23C(c4ccccc4)=CC(=O)N2[C@H](c2ccccc2)C(=O)N[C@@H]3C1
inactive	inactive	COc1ccc(NC2(c3cccc(Cl)c3)C(=O)N(C(C)(C)C)C(=O)/C2=C/c2ccccc2)cc1 (stereo unspecified)
inactive	inactive	COc1ccc(N2C(=O)/C(=C\c3ccccc3)C2(C(=O)NC(C)(C)C)c2ccc(F)cc2)cc1 (stereo unspecified)
inactive	inactive	CC(C)(C)NC(=O)C(c1ccccc1[N+](=O)O)N1C(=O)C(I)=C(c2ccccc2)C12C=CC(=O)C=C2 (stereo unspecified)
inactive	inactive	COc1ccc(N2C(=O)C(=Cc3ccccc3)C2(C(=O)NC2CCCCC2)c2ccccc2)cc1OC (stereo unspecified)
inactive	inactive	COc1ccc(C2(Nc3cc(OC)c(OC)c(OC)c3)C(=O)N(C3CCCCC3)C(=O)/C2=C/c2ccccc2)cc1 (stereo unspecified)
inactive	inactive	COC1=CC2(C=C(OC)C1=O)C(c1ccccc1)=C(I)C(=O)N2C(C(=O)NC1CCCCC1)c1cc(OC)c(OC)c(OC)c1 (stereo unspecified)

inhibition (Histamine H3 receptor)	Activity [1]	Compound
inactive	inactive	COc1ccc(N2C(=O)/C(=C\c3ccccc3)C2(C(=O)NC(C)(C)C)c2ccc(Br)cc2)cc1 (stereo unspecified)
inactive	inactive	O=C1C=CC2(C=C1)C(c1ccccc1)=C(I)C(=O)N2C(C(=O)NC1CCCCC1)c1ccccc1Br (stereo unspecified)
inactive	inactive	COc1ccc(NC2(c3cc(C)cc(C)c3)C(=O)N(C(C)(C)C)C(=O)/C2=C/c2ccccc2)cc1 (stereo unspecified)
inactive	inactive	COc1cc(C(C(=O)NC2CCCCC2)N2C(=O)C(I)=C(c3ccccc3)C23C=CC(=O)C=C3)cc(OC)c1OC (stereo unspecified)
inactive	inactive	COC1=CC2(C=C(OC)C1=O)C(c1ccccc1)=C(c1ccc(CO)cc1)C(=O)N2C(C(=O)NC1CCCCC1)c1ccc(OC)c(OC)c1OC (stereo unspecified)
inactive	inactive	CN(C)c1ccc([C@@H]2C(=O)N[C@@H]3CC(=O)C=C[C@@]34C(c3ccccc3)=CC(=O)N24)cc1
inactive	inactive	COc1ccc(N2C(=O)C(=Cc3ccccc3)C2(C(=O)NC(C)(C)C)c2ccc(OC)cc2)cc1 (stereo unspecified)
inactive	inactive	O=C1C=CC2(C=C1)C(c1ccccc1)=C(I)C(=O)N2C(C(=O)NC1CCCCC1)c1ccc(Cl)cc1 (stereo unspecified)
inactive	inactive	COC1=CC2(C=C(OC)C1=O)C(c1ccccc1)=C(I)C(=O)N2C(C(=O)NC1CCCCC1)c1cccc([N+](=O)[O-])c1 (stereo unspecified)
inactive	inactive	COc1cc(NC2(c3ccc(Cl)c(F)c3)C(=O)N(C(C)(C)C)C(=O)/C2=C/c2ccccc2)cc(OC)c1OC (stereo unspecified)
inactive	inactive	CC(C)(C)NC(=O)C(c1cc2c(cc1Br)OCO2)N1C(=O)C(I)=C(c2ccccc2)C12C=CC(=O)C=C2 (stereo unspecified)
inactive	inactive	O=C1C=C[C@]23C(c4ccccc4)=CC(=O)N2[C@H](c2cccc(OC(F)(F)F)c2)C(=O)N[C@@H]3C1
inactive	inactive	COc1ccc(NC2(c3cc(F)c(F)c(F)c3)C(=O)N(C(C)(C)C)C(=O)/C2=C/c2ccccc2)cc1 (stereo unspecified)
inactive	inactive	COc1ccc(C(C(=O)NC(C)(C)C)N2C(=O)C(I)=C(c3ccccc3)C23C=CC(=O)C=C3)cc1C (stereo unspecified)
inactive	inactive	COc1ccc(C2(Nc3cc(OC)c(OC)c(OC)c3)C(=O)N(C(C)(C)C)C(=O)/C2=C/c2ccccc2)cc1 (stereo unspecified)
inactive	inactive	O=C1C=CC2(C=C1)C(c1ccccc1)=C(I)C(=O)N2C(C(=O)NC1CCCCC1)c1ccccc1[N+](=O)[O-] (stereo unspecified)
inactive	inactive	O=C1C=C[C@]23C(c4ccccc4)=CC(=O)N2[C@H](c2cccc([N+](=O)[O-])c2)C(=O)N[C@@H]3C1
inactive	inactive	COc1ccc(N2C(=O)/C(=C\c3ccccc3)C2(C(=O)NC(C)(C)C)c2cc(C)cc(C)c2)cc1 (stereo unspecified)
inactive	inactive	COc1cc(OC)c(C(C(=O)NC2CCCCC2)N2C(=O)C(I)=C(c3ccccc3)C23C=CC(=O)C=C3)cc1OC (stereo unspecified)
inactive	inactive	O=C1C=C[C@]23C(c4ccccc4)=CC(=O)N2[C@H](c2ccc(Cl)c(F)c2)C(=O)N[C@@H]3C1
inactive	inactive	COc1ccc(NC2(c3cc(F)cc(F)c3)C(=O)N(C(C)(C)C)C(=O)/C2=C/c2ccccc2)cc1 (stereo unspecified)
inactive	inactive	COC1=CC2(C=C(OC)C1=O)C(c1ccccc1)=C(c1cccc3c1OCO3)C(=O)N2C(C(=O)NC1CCCCC1)c1cc(OC)c(OC)c(OC)c1 (stereo unspecified)
inactive	inactive	COc1ccc(C(C(=O)NC(C)(C)C)N2C(=O)C(I)=C(c3ccccc3)C23C=CC(=O)C=C3)cc1 (stereo unspecified)
inactive	inactive	O=C1C=C[C@]23C(c4ccccc4)=CC(=O)N2[C@H](c2cccc(Cl)c2)C(=O)N[C@@H]3C1
inactive	inactive	COC1=CC2(C=C(OC)C1=O)C(c1ccccc1)=C(c1ccc(OC)cc1)C(=O)N2C(C(=O)NC1CCCCC1)c1cc(OC)c(OC)c(OC)c1 (stereo unspecified)
inactive	inactive	COc1ccccc1[C@@H]1C(=O)N[C@@H]2CC(=O)C=C[C@@]23C(c2ccccc2)=CC(=O)N13
inactive	inactive	COc1ccc(N2C(=O)/C(=C\c3ccccc3)C2(C(=O)NC(C)(C)C)c2cccc(Cl)c2)cc1 (stereo unspecified)
